Laboratory results as given in patent publication US9101136B2, “Synergistic herbicide/fungicide composition containing certain pyridine carboxylic acids and certain fungicides” (Dow AgroSciences LLC, priority 2010, dated 2015).
Counter-ions that a name gives are not always drawn. Like-named read-outs stand apart in the source and are kept apart here.

Columns and labels:
Assay type in all cases: in vivo
[1] = tested on: kochia (Kochia scoparia L; KCHSC); experiment: Postemergence herbicidal activity of mixtures on kochia; set-up: KCHSC Ob: unit: %; conditions: for pest or weed control at 31.25 g/ha: fungicide 31.25 g/ha alone; for KCHSC Ob (observed control): alone
Method: (§1) Seeds of the desired test plant species were planted in Sun Gro MetroMix 306 planting mixture, which typically has a pH of 6.0 to 6.8 and an organic matter content of about 30 percent, in plastic pots with a surface area of 103.2 square centimeters (cm^2). When required to ensure good germination and healthy plants, a fungicide treatment and/or other chemical or physical treatment was applied. The plants were grown for 7-36 days (d) in a greenhouse with an approximate 14-hour (h) photoperiod which was maintained at about 18° C. during the day and 17° C. during the night. Nutrients and water were added on a regular basis and supplemental lighting was provided with overhead metal halide 1000-Watt lamps as necessary. The plants were employed for testing when they reached the second or third true leaf stage.
(§2) Treatments consisted of a cereal fungicide compound (as listed in Tables 1 through 34) and the cereal herbicide, 4-amino-3-chloro-6-(4-chloro-2-fluoro-3-methoxyphenyl)pyridine-2-carboxylic acid, alone and in combination. Weighed amounts of acid, esters (methyl) or salts (triethylammonium, TEA) of 4-amino-3-chloro-6-(4-chloro-2-fluoro-3-methoxyphenyl)pyridine-2-carboxylic acid (Compound I) were placed in 25 milliliter (mL) glass vials and dissolved in a volume of 97:3 volume-to-volume (v/v) acetone/dimethyl sulfoxide (DMSO) to obtain 4.5 milligrams active ingredient per milliliter (mg ai/mL) concentrated solutions. […] The concentrated solutions of Compound I were diluted to 1.5 mg ai/mL with the addition of 2 volumes of an aqueous mixture containing acetone, water, isopropyl alcohol, DMSO, Agri-dex crop oil concentrate, and Triton® X-77 surfactant in a 64.7:26.0:6.7:2.0:0.7:0.01 v/v ratio. A dilution solution was prepared by mixing 1 volume of 97:3 v/v acetone/DMSO and 2 volumes of an aqueous mixture containing acetone, water, isopropyl alcohol, DMSO, Agri-dex crop oil concentrate, and Triton® X-77 surfactant in a 64.7:26.0:6.7:2.0:0.7:0.01 v/v ratio. Compound requirements are based upon a 12 mL application volume at a rate of 187 liters per hectare (L/ha). The concentrated solutions of the cereal fungicides were prepared following the same procedure. Weighed amounts of fungicide were placed in 25 mL glass vials and dissolved in a volume of 97:3 v/v acetone/DMSO to obtain concentrated fungicide solutions. The concentrated solutions of the safener were prepared following the same procedure. Weighed amounts of safener were placed in 25 mL glass vials and dissolved in a volume of 97:3 v/v acetone/DMSO to obtain concentrated safener solutions.
(§3) Spray solutions of the cereal herbicide and the fungicidal compound mixtures were prepared by adding the concentrated solutions to the appropriate amount of dilution solution to form 12 mL spray solution with active ingredients in combinations. Spray solutions of the cereal herbicide, herbicide safener and the fungicidal compound mixtures were prepared by adding the concentrated solutions to the appropriate amount of dilution solution to form 12 mL spray solution with active ingredients in combinations.
(§4) Formulated compounds were applied to the plant material with an overhead Mandel track sprayer equipped with 8002E nozzles calibrated to deliver 187 L/ha over an application area of 0.503 square meters (m^2) at a spray height of 18 inches […] above average plant canopy. Control plants were sprayed in the same manner with the solvent blank.
(§5) The treated plants and control plants were placed in a greenhouse as described above and watered by sub-irrigation to prevent wash-off of the test compounds. After 20-22 d, the condition of the test plants as compared with that of the control plants was determined visually and scored on a scale of 0 to 100 percent where 0 corresponds to no injury and 100 corresponds to complete kill. […]

[2] = tested on: scented mayweed (Matricaria chamomila L; MATCH); experiment: Postemergence herbicidal activity of mixtures on scented mayweed; conditions: for pest or weed control at 31.25 g/ha: fungicide 31.25 g/ha alone; for MATCH Ob (observed control): alone
Method: as §1, §2, §3, §4, §5

[3] = tested on: Russian thistle (Salsola iberica L; SASKR); experiment: Postemergence herbicidal activity of mixtures on Russian thistle; conditions: for pest or weed control at 31.25 g/ha: fungicide 31.25 g/ha alone; for SASKR Ob (observed control): alone
Method: as §1, §2, §3, §4, §5

[4] = tested on: bird's-eye speedwell (Veronica persica L; VERPE); experiment: Postemergence herbicidal activity of mixtures on bird's-eye speedwell; conditions: for pest or weed control at 31.25 g/ha: Veronica persica, post-emergence, fungicide 31.25 g/ha alone, read-out: VERPE Ob; for VERPE Ob (observed control): alone
Method: as §1, §2, §3, §4, §5

[5] = tested on: wild pansy (Viola tricolor L; VIOTR); experiment: Postemergence herbicidal activity of mixtures on wild pansy; conditions: for pest or weed control at 31.25 g/ha: fungicide 31.25 g/ha alone
Method: as §1, §2, §3, §4, §5

[6] = Bassia scoparia, post-emergence, read-out: KCHSC Ob
[7] = Matricaria, post-emergence, read-out: MATCH Ob
[8] = Salsola tragus, post-emergence, read-out: SASKR Ob
[9] = Viola tricolor, post-emergence, read-out: VIOTR Ob

CCCC1COC(Cn2cncn2)(c2ccc(Cl)cc2Cl)O1 (stereo not shown) [Propiconazole, 1-[[2-(2,4-dichlorophenyl)-4-propyl-1,3-dioxolan-2-yl]methyl]-1H-1,2,4-triazole]
0%: pest or weed control at 31.25 g/ha [1, 6] | pest or weed control at 31.25 g/ha [2, 7] | pest or weed control at 31.25 g/ha [3, 8] | pest or weed control at 31.25 g/ha [4] | pest or weed control at 31.25 g/ha [5, 9]

Fc1ccc([C@]2(Cn3cncn3)O[C@H]2c2ccccc2Cl)cc1 (racemic) [Epoxiconazole, rel-1-[[(2R,3S)-3-(2-chlorophenyl)-2-(4-fluorophenyl)oxiranyl]methyl]-1H-1,2,4-triazole]
0%: pest or weed control at 31.25 g/ha [1, 6] | pest or weed control at 31.25 g/ha [2, 7] | pest or weed control at 31.25 g/ha [3, 8] | pest or weed control at 31.25 g/ha [4] | pest or weed control at 31.25 g/ha [5, 9]

CO/N=C(/C(=O)OC)c1ccccc1CO/N=C(\C)c1cccc(C(F)(F)F)c1 [Trifloxystrobin, methyl (αE)-α-(methoxyimino)-2-[[[[(1E)-1-[3-(trifluoromethyl)phenyl]ethylidene]amino]oxy]methyl]benzeneacetate]
0%: KCHSC Ob (observed control) ([1]; 62.5 g/ha) | MATCH Ob (observed control) ([2]; 62.5 g/ha) | SASKR Ob (observed control) ([3]; 62.5 g/ha) | VERPE Ob (observed control) ([4]; 62.5 g/ha) | pest or weed control at 62.5 g/ha ([5]; Viola tricolor, post-emergence, alone, 62.5 g/ha, read-out: VIOTR Ob (observed control))

COc1c(Cl)ccc(-c2cc(N)c(Cl)c(C(=O)O)n2)c1F [Compound I TEA Salt, 4-amino-3-chloro-6-(4-chloro-2-fluoro-3-methoxyphenyl)pyridine-2-carboxylic acid]
23%: VIOTR Ob ([5]; Compound I 8.75 g/ha alone) | VIOTR Ob (observed control) ([5]; alone, 8.75 g/ha)
70%: VERPE Ob ([4]; Compound I 35 g/ha alone) | VERPE Ob (observed control) ([4]; 35 g/ha)
73%: pest or weed control at 35 g/ha ([2]; Matricaria, post-emergence, Compound I 35 g/ha alone, read-out: MATCH Ob) | MATCH Ob (observed control) ([2]; 35 g/ha)
86%: pest or weed control at 35 g/ha ([3]; Salsola tragus, post-emergence, Compound I 35 g/ha alone, read-out: SASKR Ob) | SASKR Ob (observed control) ([3]; 35 g/ha)
65%: KCHSC Ob ([1]; Compound I 35 g/ha alone) | KCHSC Ob (observed control) ([1]; 35 g/ha)
47%: VIOTR Ob ([5]; Compound I 35 g/ha alone) | pest or weed control at 35 g/ha ([5]; Viola tricolor, post-emergence, alone, 35 g/ha, read-out: VIOTR Ob (observed control))
80%: pest or weed control at 8.75 g/ha ([3]; Salsola tragus, post-emergence, Compound I 8.75 g/ha alone, read-out: SASKR Ob) | SASKR Ob (observed control) ([3]; 8.75 g/ha)
55%: KCHSC Ob ([1]; Compound I 17.5 g/ha alone) | KCHSC Ob (observed control) ([1]; 17.5 g/ha)
40%: KCHSC Ob ([1]; Compound I 8.75 g/ha alone) | KCHSC Ob (observed control) ([1]; 8.75 g/ha) | MATCH Ob ([2]; Compound I 8.75 g/ha alone) | MATCH Ob (observed control) ([2]; 8.75 g/ha) | VERPE Ob ([4]; Compound I 17.5 g/ha alone) | VERPE Ob (observed control) ([4]; 17.5 g/ha) | VIOTR Ob ([5]; Compound I 17.5 g/ha alone) | pest or weed control at 17.5 g/ha ([5]; Viola tricolor, post-emergence, alone, 17.5 g/ha, read-out: VIOTR Ob (observed control))
84%: pest or weed control at 17.5 g/ha ([3]; Salsola tragus, post-emergence, Compound I 17.5 g/ha alone, read-out: SASKR Ob) | SASKR Ob (observed control) ([3]; 17.5 g/ha)
67%: pest or weed control at 17.5 g/ha ([2]; Matricaria, post-emergence, Compound I 17.5 g/ha alone, read-out: MATCH Ob) | MATCH Ob (observed control) ([2]; 17.5 g/ha)
10%: VERPE Ob ([4]; Compound I 8.75 g/ha alone) | VERPE Ob (observed control) ([4]; 8.75 g/ha)

Fc1ccc(Oc2ccnc3cc(Cl)cc(Cl)c23)cc1 [Quinoxyfen, 5,7-dichloro-4-(4-fluorophenoxy)quinoline]
0%: pest or weed control at 37.5 g/ha ([1]; Bassia scoparia, post-emergence, fungicide 37.5 g/ha alone, read-out: KCHSC Ob) | KCHSC Ob (observed control) ([1]; 37.5 g/ha) | MATCH Ob (observed control) ([2]; 37.5 g/ha) | SASKR Ob (observed control) ([3]; 37.5 g/ha) | VERPE Ob (observed control) ([4]; 37.5 g/ha) | pest or weed control at 37.5 g/ha ([5]; Viola tricolor, post-emergence, alone, 37.5 g/ha, read-out: VIOTR Ob (observed control)) | pest or weed control at 37.5 g/ha ([5]; Viola tricolor, post-emergence, fungicide 37.5 g/ha alone, read-out: VIOTR Ob)
